# Laboratory results published in PubChem BioAssay (NCI).
#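 Briefly, cells in 96-well plates were exposed to five compound concentrations for 48 h, and endpoints were estimated by linear interpolation. At the TGI there is no net growth.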
# What was measured:
# Assay in all cases: growth of human tumour cells (NCI), 48 h
# UO-31 renal = test system: UO-31 renal
# RXF 393 renal = test system: RXF 393 renal
# A498 renal = test system: A498 renal
# HCT-116 colon = test system: HCT-116 colon
# M14 melanoma = test system: M14 melanoma
# PC-3 prostate = test system: PC-3 prostate
# CAKI-1 renal = test system: CAKI-1 renal
# A549 NSCLC = test system: A549 NSCLC
# HOP-92 NSCLC = test system: HOP-92 NSCLC
# ACHN renal = test system: ACHN renal
# OVCAR-5 ovarian = test system: OVCAR-5 ovarian
# SK-MEL-2 melanoma = test system: SK-MEL-2 melanoma
# SF-539 CNS = test system: SF-539 CNS
# EKVX NSCLC = test system: EKVX NSCLC
# HS 578T breast = test system: HS 578T breast
# LOX IMVI melanoma = test system: LOX IMVI melanoma
# UACC-257 melanoma = test system: UACC-257 melanoma
# SF-295 CNS = test system: SF-295 CNS
# OVCAR-8 ovarian = test system: OVCAR-8 ovarian
# SR leukemia = test system: SR leukemia
# SK-MEL-5 melanoma = test system: SK-MEL-5 melanoma
# COLO 205 colon = test system: COLO 205 colon
# HOP-62 NSCLC = test system: HOP-62 NSCLC
# SN12C renal = test system: SN12C renal
# MOLT-4 leukemia = test system: MOLT-4 leukemia
# K-562 leukemia = test system: K-562 leukemia
# UACC-62 melanoma = test system: UACC-62 melanoma
# SK-OV-3 ovarian = test system: SK-OV-3 ovarian
# TK-10 renal = test system: TK-10 renal
# SK-MEL-28 melanoma = test system: SK-MEL-28 melanoma
# HCC-2998 colon = test system: HCC-2998 colon
# OVCAR-4 ovarian = test system: OVCAR-4 ovarian
# KM12 colon = test system: KM12 colon
# MALME-3M melanoma = test system: MALME-3M melanoma
# SNB-19 CNS = test system: SNB-19 CNS
# SNB-75 CNS = test system: SNB-75 CNS
# T-47D breast = test system: T-47D breast
# NCI/ADR-RES ovarian = test system: NCI/ADR-RES ovarian
# SF-268 CNS = test system: SF-268 CNS
# CCRF-CEM leukemia = test system: CCRF-CEM leukemia
# OVCAR-3 ovarian = test system: OVCAR-3 ovarian
# NCI-H23 lung = test system: NCI-H23 lung
# NCI-H226 lung = test system: NCI-H226 lung
# 786-0 renal = test system: 786-0 renal
# U251 CNS = test system: U251 CNS
# HT29 colon = test system: HT29 colon
# MDA-N = test system: MDA-N
# HCT-15 colon = test system: HCT-15 colon
# MCF7 breast = test system: MCF7 breast
# DU-145 prostate = test system: DU-145 prostate
# SW-620 colon = test system: SW-620 colon
# NCI-H522 lung = test system: NCI-H522 lung
# MDA-MB-231 breast = test system: MDA-MB-231 breast
# MDA-MB-435 = test system: MDA-MB-435
# BT-549 breast = test system: BT-549 breast
# RPMI-8226 leukemia = test system: RPMI-8226 leukemia
# NCI-H460 lung = test system: NCI-H460 lung
# IGROV1 ovarian = test system: IGROV1 ovarian
# HL-60(TB) leukemia = test system: HL-60(TB) leukemia
compound,measurement,setting,value
NCCCCCCn1c(-c2ccc(Br)cc2)csc1=Nc1ccccc1,TGI,UO-31 renal,22.1 µM
same,TGI,RXF 393 renal,26.2 µM
same,TGI,A498 renal,33.6 µM
same,TGI,HCT-116 colon,15.1 µM
same,TGI,M14 melanoma,3.17 µM
same,TGI,PC-3 prostate,18.3 µM
same,TGI,CAKI-1 renal,28.3 µM
same,TGI,A549 NSCLC,25 µM
same,TGI,HOP-92 NSCLC,32.4 µM
same,TGI,ACHN renal,27.7 µM
same,TGI,OVCAR-5 ovarian,24.6 µM
same,TGI,SK-MEL-2 melanoma,33.4 µM
same,TGI,SF-539 CNS,30.6 µM
same,TGI,EKVX NSCLC,26.7 µM
same,TGI,HS 578T breast,35.6 µM
same,TGI,LOX IMVI melanoma,13.1 µM
same,TGI,UACC-257 melanoma,29.6 µM
same,TGI,SF-295 CNS,29.5 µM
same,TGI,OVCAR-8 ovarian,26.2 µM
same,TGI,SR leukemia,11.3 µM
same,TGI,SK-MEL-5 melanoma,21.7 µM
same,TGI,COLO 205 colon,3.18 µM
same,TGI,HOP-62 NSCLC,32.4 µM
same,TGI,SN12C renal,26.5 µM
same,TGI,MOLT-4 leukemia,14.8 µM
same,TGI,K-562 leukemia,4.84 µM
same,TGI,UACC-62 melanoma,32.1 µM
same,TGI,SK-OV-3 ovarian,31.1 µM
same,TGI,TK-10 renal,26.7 µM
same,TGI,SK-MEL-28 melanoma,27.2 µM
same,TGI,HCC-2998 colon,12.8 µM
same,TGI,OVCAR-4 ovarian,25.9 µM
same,TGI,KM12 colon,19.7 µM
same,TGI,MALME-3M melanoma,25.6 µM
same,TGI,SNB-19 CNS,29 µM
same,TGI,SNB-75 CNS,24.2 µM
same,TGI,T-47D breast,18.3 µM
same,TGI,NCI/ADR-RES ovarian,28.8 µM
same,TGI,SF-268 CNS,31.3 µM
same,TGI,CCRF-CEM leukemia,21.6 µM
same,TGI,OVCAR-3 ovarian,23.7 µM
same,TGI,NCI-H23 lung,29.8 µM
same,TGI,NCI-H226 lung,39.5 µM
same,TGI,786-0 renal,21.9 µM
same,TGI,U251 CNS,20.9 µM
same,TGI,HT29 colon,19.9 µM
same,TGI,MDA-N,19.7 µM
same,TGI,HCT-15 colon,22.1 µM
same,TGI,MCF7 breast,17.4 µM
same,TGI,DU-145 prostate,26.3 µM
same,TGI,SW-620 colon,17.6 µM
same,TGI,NCI-H522 lung,24 µM
same,TGI,MDA-MB-231 breast,30.3 µM
same,TGI,MDA-MB-435,22.6 µM
same,TGI,BT-549 breast,27.4 µM
same,TGI,RPMI-8226 leukemia,16.2 µM
same,TGI,NCI-H460 lung,27.1 µM
CCc1c(-c2ccc(OC)cc2)c(=O)oc2cc(O)ccc12,TGI,UO-31 renal,68.4 µM
same,TGI,RXF 393 renal,> 100 µM
same,TGI,A498 renal,98.7 µM
same,TGI,HCT-116 colon,> 100 µM
same,TGI,M14 melanoma,56.8 µM
same,TGI,PC-3 prostate,83.3 µM
same,TGI,CAKI-1 renal,> 100 µM
same,TGI,A549 NSCLC,> 100 µM
same,TGI,HOP-92 NSCLC,> 100 µM
same,TGI,ACHN renal,> 100 µM
same,TGI,OVCAR-5 ovarian,> 100 µM
same,TGI,SK-MEL-2 melanoma,> 100 µM
same,TGI,IGROV1 ovarian,> 100 µM
same,TGI,HL-60(TB) leukemia,32.6 µM
same,TGI,SF-539 CNS,> 100 µM
same,TGI,EKVX NSCLC,> 100 µM
same,TGI,HS 578T breast,> 100 µM
same,TGI,LOX IMVI melanoma,> 100 µM
same,TGI,UACC-257 melanoma,61.3 µM
same,TGI,SF-295 CNS,> 100 µM
same,TGI,OVCAR-8 ovarian,> 100 µM
same,TGI,SR leukemia,58.4 µM
same,TGI,SK-MEL-5 melanoma,33.8 µM
same,TGI,COLO 205 colon,97.1 µM
same,TGI,HOP-62 NSCLC,> 100 µM
same,TGI,SN12C renal,> 100 µM
same,TGI,MOLT-4 leukemia,57.9 µM
same,TGI,K-562 leukemia,> 100 µM
same,TGI,UACC-62 melanoma,> 100 µM
same,TGI,SK-MEL-28 melanoma,> 100 µM
same,TGI,HCC-2998 colon,> 100 µM
same,TGI,OVCAR-4 ovarian,> 100 µM
same,TGI,KM12 colon,> 100 µM
same,TGI,MALME-3M melanoma,79.5 µM
same,TGI,SNB-19 CNS,> 100 µM
same,TGI,SNB-75 CNS,> 100 µM
same,TGI,T-47D breast,> 100 µM
same,TGI,NCI/ADR-RES ovarian,> 100 µM
same,TGI,SF-268 CNS,> 100 µM
same,TGI,CCRF-CEM leukemia,> 100 µM
same,TGI,OVCAR-3 ovarian,87.5 µM
same,TGI,NCI-H23 lung,> 100 µM
same,TGI,NCI-H226 lung,> 100 µM
same,TGI,786-0 renal,> 100 µM
same,TGI,U251 CNS,> 100 µM
same,TGI,HT29 colon,> 100 µM
same,TGI,MDA-N,> 100 µM
same,TGI,HCT-15 colon,> 100 µM
same,TGI,MCF7 breast,> 100 µM
same,TGI,DU-145 prostate,> 100 µM
same,TGI,SW-620 colon,> 100 µM
same,TGI,NCI-H522 lung,> 100 µM
same,TGI,MDA-MB-231 breast,> 100 µM
same,TGI,MDA-MB-435,> 100 µM
same,TGI,BT-549 breast,75.9 µM
same,TGI,RPMI-8226 leukemia,47.6 µM
same,TGI,NCI-H460 lung,> 100 µM
COc1ccc2c(c1)[C@@H]1c3cc(OC)c(OC)cc3CCN1CCC2,TGI,UO-31 renal,> 100 µM
same,TGI,RXF 393 renal,> 100 µM
same,TGI,A498 renal,> 100 µM
same,TGI,HCT-116 colon,> 100 µM
same,TGI,M14 melanoma,> 100 µM
same,TGI,PC-3 prostate,> 100 µM
same,TGI,CAKI-1 renal,> 100 µM
same,TGI,A549 NSCLC,> 100 µM
same,TGI,HOP-92 NSCLC,> 100 µM
same,TGI,ACHN renal,> 100 µM
same,TGI,OVCAR-5 ovarian,> 100 µM
same,TGI,SK-MEL-2 melanoma,> 100 µM
same,TGI,IGROV1 ovarian,> 100 µM
same,TGI,HL-60(TB) leukemia,> 100 µM
same,TGI,SF-539 CNS,> 100 µM
same,TGI,EKVX NSCLC,> 100 µM
same,TGI,HS 578T breast,> 100 µM
same,TGI,LOX IMVI melanoma,> 100 µM
same,TGI,UACC-257 melanoma,> 100 µM
same,TGI,SF-295 CNS,> 100 µM
same,TGI,OVCAR-8 ovarian,> 100 µM
same,TGI,SR leukemia,> 100 µM
same,TGI,SK-MEL-5 melanoma,> 100 µM
same,TGI,COLO 205 colon,> 100 µM
same,TGI,HOP-62 NSCLC,> 100 µM
same,TGI,SN12C renal,> 100 µM
same,TGI,MOLT-4 leukemia,> 100 µM
same,TGI,K-562 leukemia,> 100 µM
same,TGI,UACC-62 melanoma,> 100 µM
same,TGI,TK-10 renal,> 100 µM
same,TGI,SK-MEL-28 melanoma,> 100 µM
same,TGI,HCC-2998 colon,> 100 µM
same,TGI,OVCAR-4 ovarian,> 100 µM
same,TGI,KM12 colon,> 100 µM
same,TGI,MALME-3M melanoma,> 100 µM
same,TGI,SNB-19 CNS,> 100 µM
same,TGI,SNB-75 CNS,> 100 µM
same,TGI,T-47D breast,> 100 µM
same,TGI,NCI/ADR-RES ovarian,> 100 µM
same,TGI,SF-268 CNS,> 100 µM
same,TGI,CCRF-CEM leukemia,> 100 µM
same,TGI,OVCAR-3 ovarian,> 100 µM
same,TGI,NCI-H23 lung,> 100 µM
same,TGI,786-0 renal,> 100 µM
same,TGI,U251 CNS,> 100 µM
same,TGI,HT29 colon,> 100 µM
same,TGI,MDA-N,> 100 µM
same,TGI,HCT-15 colon,> 100 µM
same,TGI,MCF7 breast,> 100 µM
same,TGI,DU-145 prostate,> 100 µM
same,TGI,SW-620 colon,> 100 µM
same,TGI,NCI-H522 lung,> 100 µM
same,TGI,MDA-MB-231 breast,> 100 µM
same,TGI,MDA-MB-435,> 100 µM
same,TGI,BT-549 breast,> 100 µM
same,TGI,RPMI-8226 leukemia,> 100 µM
same,TGI,NCI-H460 lung,> 100 µM
